Measured values: US9580416B2, “Inhibitors of Bruton's tyrosine kinase” (PHARMACYCLICS LLC, priority 2014, dated 2017)

Experiments:
Assay type in all cases: biochemical
JAK3 = target: T1, JAK3 (Homo sapiens, UniProt P52333); assay: Inhibition of a panel of kinases, in vitro HotSpot kinase assay: JAK3
T1 sequence (P52333 1-1124): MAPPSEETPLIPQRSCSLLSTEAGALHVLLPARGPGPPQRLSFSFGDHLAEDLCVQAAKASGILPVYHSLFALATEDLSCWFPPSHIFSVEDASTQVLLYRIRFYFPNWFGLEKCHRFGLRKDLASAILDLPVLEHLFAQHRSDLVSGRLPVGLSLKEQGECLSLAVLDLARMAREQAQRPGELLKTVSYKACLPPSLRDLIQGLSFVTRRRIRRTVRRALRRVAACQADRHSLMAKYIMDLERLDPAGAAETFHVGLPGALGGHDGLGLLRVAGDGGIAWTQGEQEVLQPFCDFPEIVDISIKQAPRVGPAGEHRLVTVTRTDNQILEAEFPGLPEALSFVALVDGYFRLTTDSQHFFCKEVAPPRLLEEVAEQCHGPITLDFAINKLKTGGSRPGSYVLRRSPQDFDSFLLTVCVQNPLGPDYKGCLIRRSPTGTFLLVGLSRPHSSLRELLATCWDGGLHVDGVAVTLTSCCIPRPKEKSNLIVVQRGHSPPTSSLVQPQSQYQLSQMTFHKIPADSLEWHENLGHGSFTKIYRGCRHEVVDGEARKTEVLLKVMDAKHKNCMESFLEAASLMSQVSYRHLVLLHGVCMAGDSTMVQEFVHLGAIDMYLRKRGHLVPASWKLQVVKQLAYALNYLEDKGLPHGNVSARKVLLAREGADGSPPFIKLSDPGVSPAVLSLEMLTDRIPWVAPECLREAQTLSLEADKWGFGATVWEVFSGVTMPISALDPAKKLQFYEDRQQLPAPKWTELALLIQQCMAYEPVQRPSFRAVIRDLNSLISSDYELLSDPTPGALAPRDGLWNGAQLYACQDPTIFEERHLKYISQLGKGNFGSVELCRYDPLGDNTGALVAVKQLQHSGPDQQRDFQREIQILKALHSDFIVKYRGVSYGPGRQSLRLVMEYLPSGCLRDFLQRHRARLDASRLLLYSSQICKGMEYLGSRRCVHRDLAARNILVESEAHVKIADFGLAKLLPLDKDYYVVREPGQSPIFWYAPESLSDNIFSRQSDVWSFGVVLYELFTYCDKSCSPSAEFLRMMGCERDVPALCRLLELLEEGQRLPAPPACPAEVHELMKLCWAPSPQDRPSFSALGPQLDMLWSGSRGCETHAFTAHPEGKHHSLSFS
Protocol: (§1) The degree of inhibition of a panel of kinases is determined using the in vitro HotSpot kinase assay (purified enzymes, ^33P-ATP, an appropriate substrate and 1 uM ATP).

Lck = Lck (Homo sapiens, UniProt P06239); assay: Lck kinase activity, TR-FRET assay; details: read-out: LCK (IC50)
Procedure, shortened: (§2)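 Enzyme (Btk 0.5 nM; Lck 6 nM) reacted 1 h with inhibitor, ATP at Km and biotin-peptide substrate in pH 7.4 buffer, 10% DMSO. Phosphopeptide detected by Eu-p-Tyr100 antibody plus streptavidin-APC (665/615 nm). IC50 calculated from fitted Ki(app) via ATP/Km correction plus half total enzyme.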

Btk = Btk (Homo sapiens, UniProt Q06187); assay: Btk kinase activity, TR-FRET assay; details: read-out: Btk (IC50)
Procedure, shortened: as §2

EGFR = EGFR (Homo sapiens, UniProt P00533); assay: Inhibition of a panel of kinases, in vitro HotSpot kinase assay: EGFR
Protocol: as §1

Lck, sequence (P06239 whole entry, species assumed): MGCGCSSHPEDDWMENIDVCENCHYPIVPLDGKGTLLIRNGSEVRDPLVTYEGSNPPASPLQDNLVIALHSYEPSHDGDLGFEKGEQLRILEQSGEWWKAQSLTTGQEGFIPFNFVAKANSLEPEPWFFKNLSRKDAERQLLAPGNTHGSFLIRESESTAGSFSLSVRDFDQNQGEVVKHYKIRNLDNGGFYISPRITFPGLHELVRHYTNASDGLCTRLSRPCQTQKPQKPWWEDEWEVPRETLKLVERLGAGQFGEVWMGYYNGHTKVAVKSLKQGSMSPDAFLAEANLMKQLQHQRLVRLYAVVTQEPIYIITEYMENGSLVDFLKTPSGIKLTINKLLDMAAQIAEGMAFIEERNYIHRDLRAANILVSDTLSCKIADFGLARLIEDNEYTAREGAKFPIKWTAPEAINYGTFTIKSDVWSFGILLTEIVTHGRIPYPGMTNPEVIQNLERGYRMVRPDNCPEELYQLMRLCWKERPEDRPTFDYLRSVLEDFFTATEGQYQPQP
Btk, sequence (Q06187 whole entry): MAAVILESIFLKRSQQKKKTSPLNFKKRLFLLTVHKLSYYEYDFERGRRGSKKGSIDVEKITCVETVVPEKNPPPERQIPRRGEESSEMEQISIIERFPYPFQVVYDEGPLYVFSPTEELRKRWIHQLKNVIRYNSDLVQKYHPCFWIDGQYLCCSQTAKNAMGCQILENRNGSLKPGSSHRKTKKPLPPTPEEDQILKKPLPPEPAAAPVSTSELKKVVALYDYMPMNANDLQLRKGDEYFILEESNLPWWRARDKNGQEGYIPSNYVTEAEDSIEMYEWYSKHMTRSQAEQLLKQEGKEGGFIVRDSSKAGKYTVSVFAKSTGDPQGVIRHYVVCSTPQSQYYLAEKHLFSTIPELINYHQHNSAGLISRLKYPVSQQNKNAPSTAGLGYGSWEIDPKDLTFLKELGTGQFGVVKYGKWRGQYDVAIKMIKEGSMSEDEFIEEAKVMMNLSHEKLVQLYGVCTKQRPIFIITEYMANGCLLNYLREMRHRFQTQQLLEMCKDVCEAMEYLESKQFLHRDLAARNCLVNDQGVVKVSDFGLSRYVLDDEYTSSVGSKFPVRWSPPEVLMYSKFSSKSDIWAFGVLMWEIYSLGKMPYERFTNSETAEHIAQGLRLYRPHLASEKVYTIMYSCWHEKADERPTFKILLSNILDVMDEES
EGFR, sequence (P00533 25-1210): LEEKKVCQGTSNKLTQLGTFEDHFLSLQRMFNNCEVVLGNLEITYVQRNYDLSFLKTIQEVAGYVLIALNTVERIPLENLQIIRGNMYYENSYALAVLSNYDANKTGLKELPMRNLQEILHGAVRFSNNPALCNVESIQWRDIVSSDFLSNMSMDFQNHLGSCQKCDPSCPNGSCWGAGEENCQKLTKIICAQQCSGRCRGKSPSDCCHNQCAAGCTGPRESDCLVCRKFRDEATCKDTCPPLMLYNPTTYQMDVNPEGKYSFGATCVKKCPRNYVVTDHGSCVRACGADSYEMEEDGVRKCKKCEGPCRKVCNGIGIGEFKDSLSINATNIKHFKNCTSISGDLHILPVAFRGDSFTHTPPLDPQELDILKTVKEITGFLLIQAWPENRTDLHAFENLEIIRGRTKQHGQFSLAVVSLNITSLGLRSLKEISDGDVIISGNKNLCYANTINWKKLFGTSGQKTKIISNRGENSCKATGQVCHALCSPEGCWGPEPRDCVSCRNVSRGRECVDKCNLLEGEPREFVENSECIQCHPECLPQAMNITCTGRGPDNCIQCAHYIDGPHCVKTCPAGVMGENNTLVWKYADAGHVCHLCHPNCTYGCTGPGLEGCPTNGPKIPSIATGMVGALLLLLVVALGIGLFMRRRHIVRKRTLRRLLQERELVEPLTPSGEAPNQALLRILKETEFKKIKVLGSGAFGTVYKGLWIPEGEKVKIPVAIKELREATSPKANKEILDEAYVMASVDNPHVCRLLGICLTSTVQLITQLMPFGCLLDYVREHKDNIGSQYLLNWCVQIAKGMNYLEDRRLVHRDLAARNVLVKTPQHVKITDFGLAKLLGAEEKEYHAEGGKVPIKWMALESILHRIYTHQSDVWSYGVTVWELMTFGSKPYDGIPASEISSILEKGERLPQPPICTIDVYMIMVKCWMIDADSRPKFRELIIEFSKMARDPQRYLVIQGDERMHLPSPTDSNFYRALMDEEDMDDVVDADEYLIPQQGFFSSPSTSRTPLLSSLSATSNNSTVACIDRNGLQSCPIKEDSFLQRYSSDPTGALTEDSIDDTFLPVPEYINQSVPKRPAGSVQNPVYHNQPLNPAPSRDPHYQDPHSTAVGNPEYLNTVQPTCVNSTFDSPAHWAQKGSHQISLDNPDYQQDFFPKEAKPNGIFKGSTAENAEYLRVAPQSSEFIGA

| SMILES | IC50 (JAK3) [nM] | IC50 (Lck) [nM] | IC50 (Btk) [nM] | IC50 (EGFR) [nM] |
| --- | --- | --- | --- | --- |
| COc1ccc(C(=O)N2CCC[C@@H](Nc3n[nH]c4nccc(Oc5ccc(C(=O)Nc6cc(C)ccn6)cc5)c34)C2)cc1 [compound 246, (R)-4-(3-(1-(4-methoxybenzoyl)piperidin-3-ylamino)-1H-pyrazolo[3,4-b]pyridin-4-yloxy)-N-(4-methylpyridin-2-yl)benzamide] | > 10000 | 1000 to 10000 | < 100 |  |
| CCC(=O)N1CC[C@@H](Nc2n[nH]c3nccc(Oc4ccc(C(=O)Nc5ncc(C)s5)cc4)c23)C1 [compound 72, N-(5-methyl-1,3-thiazol-2-yl)-4-[(3-{[(3R)-1-propanoylpyrrolidin-3-yl]amino}-1H-pyrazolo[3,4-b]pyridin-4-yl)oxy]benzamide] | 1000 to 10000 |  |  |  |
| CN(C/C=C/C(=O)N1CC[C@@H](Nc2n[nH]c3nccc(Nc4ccc(Oc5ccccc5)cc4)c23)C1)C1CC1 [compound 23, (2E)-4-[cyclopropyl(methyl)amino]-1-[(3R)-3-({4-[(4-phenoxyphenyl)amino]-1H-pyrazolo[3,4-b]pyridin-3-yl}amino)pyrrolidin-1-yl]but-2-en-1-one] |  | < 100 | < 100 | 100 to 1000 |
| COc1ccnc(NC(=O)c2ccc(Oc3ccnc4[nH]nc(N[C@@H]5CCN(C(=O)/C=C/CN(C)C6CC6)C5)c34)cc2)c1 [compound 58] |  | 1000 to 10000 | < 100 | > 10000 |
| CCC(=O)N1CC[C@@H](Nc2n[nH]c3nccc(Oc4ccc(C(=O)Nc5ncc(C)s5)cc4)c23)C1 [compound 190] |  | 1000 to 10000 | < 100 | 1000 to 10000 |
| N#CCNC(=O)c1cc(Nc2n[nH]c3nccc(Oc4ccc(Oc5ccccc5)cc4)c23)ccn1 [compound 65] |  | < 100 | 100 to 1000 | 100 to 1000 |
| Cc1ccnc(NC(=O)c2ccc(Oc3ccnc4[nH]nc(N[C@@H]5CCCN(C(=O)C6(C)CCC6)C5)c34)cc2)c1 [compound 88, 4-[(3-{[(3R)-1-(1-methylcyclobutanecarbonyl)piperidin-3-yl]amino}-1H-pyrazolo[3,4-b]pyridin-4-yl)oxy]-N-(4-methylpyridin-2-yl)benzamide] |  | 1000 to 10000 | < 100 | > 10000 |
| CCC(=O)N1CC[C@@H](Nc2n[nH]c3nccc(Oc4ccc(C(=O)Nc5cc(C(F)(F)F)ccn5)cc4)c23)C1 [compound 66] |  | 100 to 1000 | < 100 | 1000 to 10000 |
| CCCc1ccnc(NC(=O)c2ccc(Oc3ccnc4[nH]nc(N[C@@H]5CCN(C(=O)/C=C/CN(C)C6CC6)C5)c34)cc2)c1 [compound 56] |  | 100 to 1000 | < 100 | 1000 to 10000 |
| CCNC(=O)N1CCCC(c2n[nH]c3nccc(Oc4ccc(C(=O)Nc5cc(C(F)(F)F)ccn5)cc4)c23)C1 (stereo not drawn) [compound 186] |  | 100 to 1000 | 100 to 1000 | 1000 to 10000 |
| CN(C/C=C/C(=O)N1CC[C@@H](Nc2n[nH]c3ncnc(Oc4ccc(Oc5ccccc5)cc4)c23)C1)C1CC1 [compound 48] |  | 1000 to 10000 | 100 to 1000 | 100 to 1000 |
| CN(C/C=C/C(=O)N1CC[C@@H](Nc2n[nH]c3nccc(Oc4cccc(Oc5ccccc5)c4)c23)C1)C1CC1 [compound 11, (2E)-4-[cyclopropyl(methyl)amino]-1-[(3R)-3-{[4-(3-phenoxyphenoxy)-1H-pyrazolo[3,4-b]pyridin-3-yl]amino}pyrrolidin-1-yl]but-2-en-1-one] |  | 1000 to 10000 | < 100 | 1000 to 10000 |

Other lines, results leading:

| IC50 (JAK3) [nM] | IC50 (Lck) [nM] | IC50 (Btk) [nM] | IC50 (EGFR) [nM] | SMILES |
| --- | --- | --- | --- | --- |
| > 10000 | > 10000 | 100 to 1000 |  | Cc1cc(NC(=O)c2cccc(Nc3ccnc4[nH]nc(N[C@@H]5CCCN(C(=O)c6ccc(F)cc6)C5)c34)c2)ccc1C(C)C [compound 130, 3-[(3-{[(3R)-1-(4-fluorobenzoyl)piperidin-3-yl]amino}-1H-pyrazolo[3,4-b]pyridin-4-yl)amino]-N-[3-methyl-4-(propan-2-yl)phenyl]benzamide] |
| > 10000 | 1000 to 10000 | 100 to 1000 |  | CC(=O)N1CCC[C@@H](Nc2n[nH]c3nccc(Nc4cccc(C(=O)Nc5ccc(C(C)C)c(C)c5)c4)c23)C1 [compound 131, 3-[(3-{[(3R)-1-acetylpiperidin-3-yl]amino}-1H-pyrazolo[3,4-b]pyridin-4-yl)amino]-N-[3-methyl-4-(propan-2-yl)phenyl]benzamide] |
| > 10000 | 1000 to 10000 | 100 to 1000 |  | Cc1cc(NC(=O)c2cccc(Nc3ccnc4[nH]nc(N[C@@H]5CCCN(C(=O)C6CC6)C5)c34)c2)ccc1C(C)C [compound 127, 3-[(3-{[(3R)-1-cyclopropanecarbonylpiperidin-3-yl]amino}-1H-pyrazolo[3,4-b]pyridin-4-yl)amino]-N-[3-methyl-4-(propan-2-yl)phenyl]benzamide] |
| > 10000 | 1000 to 10000 | < 100 |  | Cc1ccnc(NC(=O)c2ccc(Oc3ccnc4[nH]nc(N[C@@H]5CCCN(C(=O)c6cccc(F)c6)C5)c34)cc2)c1 [compound 247, (R)-4-(3-(1-(3-fluorobenzoyl)piperidin-3-ylamino)-1H-pyrazolo[3,4-b]pyridin-4-yloxy)-N-(4-methylpyridin-2-yl)benzamide] |
| > 10000 |  | < 100 |  | Cc1ccnc(NC(=O)c2ccc(Oc3ccnc4[nH]nc(N[C@@H]5CCCN(C(=O)C6(C)COC6)C5)c34)cc2)c1 [compound 86, 4-[(3-{[(3R)-1-(3-methyloxetane-3-carbonyl)piperidin-3-yl]amino}-1H-pyrazolo[3,4-b]pyridin-4-yl)oxy]-N-(4-methylpyridin-2-yl)benzamide] |
|  | 100 to 1000 | < 100 | 1000 to 10000 | CN(C/C=C/C(=O)N1CC[C@@H](Nc2n[nH]c3nccc(Oc4ccc(C(=O)Nc5cc(C(F)(F)F)ccn5)cc4)c23)C1)C1CC1 [compound 33, 4-[(3-{[(3R)-1-[(2E)-4-[cyclopropyl(methyl)amino]but-2-enoyl]pyrrolidin-3-yl]amino}-1H-pyrazolo[3,4-b]pyridin-4-yl)oxy]-N-[4-(trifluoromethyl)pyridin-2-yl]benzamide] |
|  | 100 to 1000 | < 100 | 1000 to 10000 | N#Cc1ccnc(NC(=O)c2ccc(Oc3ccnc4[nH]nc(NC5CCOCC5)c34)cc2)c1 [compound 77, N-(4-cyanopyridin-2-yl)-4-({3-[(oxan-4-yl)amino]-1H-pyrazolo[3,4-b]pyridin-4-yl}oxy)benzamide] |
|  | 100 to 1000 | < 100 | 100 to 1000 | CO[C@H]1CC[C@@H](Nc2n[nH]c3nccc(Oc4ccc(C(=O)Nc5cc(C#N)ccn5)cc4)c23)CC1 [compound 85, N-(4-cyanopyridin-2-yl)-4-[(3-{[(1S,4S)-4-methoxycyclohexyl]amino}-1H-pyrazolo[3,4-b]pyridin-4-yl)oxy]benzamide] |
|  | 1000 to 10000 | < 100 | 1000 to 10000 | C=CC(=O)N1CC[C@@H](Nc2c[nH]c3nccc(Oc4ccc(Cl)cc4)c23)C1 [compound 7, 1-[(3R)-3-{[4-(4-chlorophenoxy)-1H-pyrrolo[2,3-b]pyridin-3-yl]amino}pyrrolidin-1-yl]prop-2-en-1-one] |
|  | > 10000 | > 10000 | > 10000 | CCC(=O)N1CC[C@@H](Nc2n[nH]c3nccc(Oc4ccc(C(=O)Nc5nccc(=O)[nH]5)cc4)c23)C1 [compound 74, N-(6-oxo-1,6-dihydropyrimidin-2-yl)-4-[(3-{[(3R)-1-propanoylpyrrolidin-3-yl]amino}-1H-pyrazolo[3,4-b]pyridin-4-yl)oxy]benzamide] |
|  | < 100 | < 100 | < 100 | CN(C/C=C/C(=O)N1CC[C@@H](Oc2n[nH]c3nccc(Oc4ccc(Oc5ccccc5)cc4)c23)C1)C1CC1 [compound 22, (2E)-4-[cyclopropyl(methyl)amino]-1-[(3R)-3-{[4-(4-phenoxyphenoxy)-1H-pyrazolo[3,4-b]pyridin-3-yl]oxy}pyrrolidin-1-yl]but-2-en-1-one] |
